# From patent US20070225351A1, “Methods and compositions for controlling body weight and appetite” (priority 2002, published 2007)
# How the values were obtained:
# [1] = Toxicokinetic evaluation in rats; conditions: rat, in vivo
# Description: For toxicokinetic evaluation, all animals were observed twice daily for mortality and moribundity. Blood samples were collected from three animals/sex/group at 0 (pre-dose), 1, 2, 4, 8 and 24 hours after dose administration on study days 0 and 87. All toxicokinetic animals were euthanized and discarded following the final blood collection (study day 88).
# [2] = Toxicokinetic evaluation in dogs; format: in vivo; conditions: beagle, dog, po; for AUC(0-t): read-out: AUC0-24 h
# Description: (§1) Eighteen male and eighteen female beagle dogs were received from Ridglan Farms, Mt. Horeb, Wis. […] Each group consisted of four males and four females. All animals/sex/group were scheduled for the primary necropsy at the end of the 13-week treatment period.
# (§2) The animals were observed twice daily for mortality and moribundity. Clinical examinations were performed daily at the time of dosing and approximately 1-2 and approximately 3 hours following dose administration. Detailed physical examinations were performed weekly. Clinical pathology evaluations (hematology, serum chemistry and urinalysis) were performed prior to the initiation of dose administration (study week-1) and prior to the scheduled necropsy (study week 13). Individual body weights were recorded weekly, beginning approximately two weeks prior to test article administration (study week-2). Mean body weights and mean body weight changes were calculated for each corresponding interval. Final body weights (fasted) were recorded prior to the scheduled necropsy. Blood samples for toxicokinetic evaluation were collected from all dogs on study days 0 and 88 at 0, 1, 2, 4, 8 and 24 hours after dose administration. […] Gross lesions were also examined from the 2.0 and 6.0 mg/kg/day groups.
# in vivo = format: in vivo; conditions: both sexes, beagle, dog, in vivo, po
# Description: as §1
# as §2, with “necropsy.” for “necropsy. Blood samples for toxicokinetic evaluation were collected from all dogs on study days 0 and 88 at 0, 1, 2, 4, 8 and 24 hours after dose administration.”
# [3] = female, Crl:CD(SD)IGS BR (Sprague-Dawley), po, 60 mg/kg/day
# [4] = female, Crl:CD(SD)IGS BR, po, 10 mg/kg/day
# [5] = female, Crl:CD(SD)IGS BR, po, 25 mg/kg/day
# [6] = male, Crl:CD(SD)IGS BR, po, 10 mg/kg/day
# [7] = male, Crl:CD(SD)IGS BR, po, 25 mg/kg/day
# [8] = male, Crl:CD(SD)IGS BR, po, 60 mg/kg/day
# [9] = female, blood, 6 mg/kg/day, female dogs, 6 mg/kg/day oral, Day 0
# [10] = female, blood, 6 mg/kg/day, female dogs, 6 mg/kg/day oral, Day 88
# [11] = female, blood, 20 mg/kg/day, female dogs, 20 mg/kg/day oral, Day 0
# [12] = female, blood, 20 mg/kg/day, female dogs, 20 mg/kg/day oral, Day 88
# [13] = female, in vivo, 2 mg/kg/day, female dogs, 2 mg/kg/day oral, Day 0
# [14] = female, in vivo, 2 mg/kg/day, female dogs, 2 mg/kg/day oral, Day 88
# [15] = male, blood, 2 mg/kg/day, male dogs, 2 mg/kg/day oral, Day 0
# [16] = male, blood, 2 mg/kg/day, male dogs, 2 mg/kg/day oral, Day 88
# [17] = male, in vivo, 6 mg/kg/day, male dogs, 6 mg/kg/day oral, Day 0
# [18] = male, in vivo, 6 mg/kg/day, male dogs, 6 mg/kg/day oral, Day 88
# [19] = male, in vivo, 20 mg/kg/day, male dogs, 20 mg/kg/day oral, Day 0
# [20] = male, in vivo, 20 mg/kg/day, male dogs, 20 mg/kg/day oral, Day 88
structure (smiles),measurement,setting,value
"Clc1ccc([C@]23CNCC2C3)cc1Cl (single isomer, unassigned; (+)) [(+)-1-(3,4-dichlorophenyl)-3-azabicyclo[3.1.0]hexane]",AUC(0-t),"[1]; Crl:CD(SD)IGS BR (Sprague-Dawley), male rats, 10 mg/kg/day oral, Day 87, read-out: AUC0-24 h",8130 ng·h/mL
same,AUC(0-t),"[1]; Crl:CD(SD)IGS BR, female rats, 10 mg/kg/day oral, Day 87, read-out: AUC0-24 h",14400 ng·h/mL
same,AUC0-24 h,[1]; [3],88137 ng·h/mL
same,AUC(0-t),"[1]; female, Crl:CD(SD)IGS BR (Sprague-Dawley), po, 60 mg/kg/day, AUC0-24 h",54400 ng·h/mL
same,Cmax,[1]; [3],6600 ng/mL
same,Tmax,[1]; [3],2 h
same,AUC(0-t),"[1]; female, Crl:CD(SD)IGS BR, po, 10 mg/kg/day, AUC0-24 h",10900 ng·h/mL
same,Cmax,[1]; [4],1390 ng/mL
same,Tmax,[1]; [4],1 h
same,AUC0-24 h,[1]; [5],30205 ng·h/mL
same,AUC(0-t),"[1]; female, Crl:CD(SD)IGS BR, po, 25 mg/kg/day, AUC0-24 h",31000 ng·h/mL
same,Cmax,[1]; [5],2810 ng/mL
same,Tmax,[1]; [5],2 h
same,AUC(0-t),"[1]; male, Crl:CD(SD)IGS BR (Sprague-Dawley), po, 10 mg/kg/day, AUC0-24 h",5940 ng·h/mL
same,Cmax,[1]; [6],863 ng/mL
same,Tmax,[1]; [6],2 h
same,AUC0-24 h,[1]; [7],21975 ng·h/mL
same,AUC(0-t),"[1]; male, Crl:CD(SD)IGS BR, po, 25 mg/kg/day, AUC0-24 h",17400 ng·h/mL
same,Cmax,[1]; [7],2360 ng/mL
same,Tmax,[1]; [7],2 h
same,AUC0-24 h,[1]; [8],60093 ng·h/mL
same,AUC(0-t),"[1]; male, Crl:CD(SD)IGS BR, po, 60 mg/kg/day, AUC0-24 h",36300 ng·h/mL
same,Cmax,[1]; [8],3680 ng/mL
same,Tmax,[1]; [8],1 h
same,Tmax,"[2]; female, blood, 2 mg/kg/day, female dogs, 2 mg/kg/day oral, Day 0",1 h
same,Tmax,"[2]; female, blood, 2 mg/kg/day, female dogs, 2 mg/kg/day oral, Day 88",1 h
same,Cmax,[2]; [9],5120 ng/mL
same,Tmax,[2]; [9],1 h
same,AUC(0-t),[2]; [9],13600 ng·h/mL
same,Cmax,[2]; [10],4850 ng/mL
same,Tmax,[2]; [10],1 h
same,Cmax,[2]; [11],9280 ng/mL
same,Tmax,[2]; [11],2 h
same,AUC(0-t),[2]; [11],63600 ng·h/mL
same,Cmax,[2]; [12],8430 ng/mL
same,Tmax,[2]; [12],1 h
same,AUC(0-t),[2]; [12],29600 ng·h/mL
same,Cmax,[2]; [13],635 ng/mL
same,AUC(0-t),[2]; [13],1470 ng·h/mL
same,Cmax,[2]; [14],663 ng/mL
same,AUC(0-t),[2]; [14],2150 ng·h/mL
same,AUC(0-t),"[2]; female, in vivo, 6 mg/kg/day, female dogs, 6 mg/kg/day oral, Day 88",15900 ng·h/mL
same,Cmax,[2]; [15],507 ng/mL
same,Tmax,[2]; [15],1 h
same,AUC(0-t),[2]; [15],1570 ng·h/mL
same,Cmax,[2]; [16],753 ng/mL
same,Tmax,[2]; [16],1 h
same,AUC(0-t),[2]; [16],2280 ng·h/mL
same,Cmax,[2]; [17],4640 ng/mL
same,Tmax,[2]; [17],1 h
same,AUC(0-t),[2]; [17],12800 ng·h/mL
same,Cmax,[2]; [18],4140 ng/mL
same,Tmax,[2]; [18],1 h
same,AUC(0-t),[2]; [18],13100 ng·h/mL
same,Cmax,[2]; [19],11400 ng/mL
same,Tmax,[2]; [19],1 h
same,AUC(0-t),[2]; [19],47800 ng·h/mL
same,Cmax,[2]; [20],7230 ng/mL
same,Tmax,[2]; [20],1 h
same,AUC(0-t),[2]; [20],44000 ng·h/mL
same,NOAEL at 13 weeks,in vivo,6 mg/kg/day
